Results published in PMC5645361, “Expression and function of Abcg4 in the mouse blood-brain barrier: role in restricting the brain entry of amyloid-β peptide” (Scientific Reports, 2017).
Read-outs that look alike come from different tables or passages of the source. Blank lines part the entries; values can stand above or below the compound they belong to.

Assays:
[1] = system: Abcg4; assay: In situ brain perfusion (ISBP): brain uptake clearance of tritiated tracers at the luminal BBB, WT and Abcg4-KO mice
Description: (§1) The function of Abcg4 at the mouse BBB was evaluated by using the in situ brain perfusion (ISBP) technique. This method was developed to study drug transport processes occurring at the luminal side of the BCECs[40],[41] and can be used to measure transport parameters, including the brain volume of distribution and the brain uptake clearance (Clup) of a target molecule over very short periods (30–120 s). The resulting Clup integrates the effect of enhancing or limiting factors introduced by the transporters located at the luminal side of BCECs. This method allows for measurement of the initial brain uptake of molecules, which results from both the influx and the efflux mechanisms involved in their transport. One of the advantages of this technique is the ability to administer inhibitors, or to use transporter deficient mice, in order to modulate function at the luminal side of the BBB.
(§2) Mice were anesthetized by intra-peritoneal injection of a mixture of ketamine and xylazine at 140:8 mg/kg. The right common carotid artery was ligated on the heart side and the right external carotid artery was ligated at the level of the bifurcation. A catheter was inserted into the right common carotid artery. The perfusion liquid was contained in a syringe placed in an infusion pump and connected to the catheter. Before the perfusion, the thorax of the animal was opened, the heart was removed and perfusion started immediately at flow of 2.5 mL/min. The perfusion fluid was Krebs bicarbonate-buffered physiological saline (128 mM NaCl, 24 mM NaHCO3, 4.2 mM KCl, 2.4 NaH2PO4, 1.5 mM CaCl2, 0.9 mM MgCl2 and 9 mM D-glucose).The solution was gassed with 95% O2−5% CO2 to bring the pH to 7.40 and warmed to 37 °C in water bath. Each mouse was perfused for 60 s with [^3H]Aβ1–40 (0.2 µCi/mL) or [^3H]desmosterol (0.2 µCi/mL). [^14C]sucrose was used as a vascular marker of the physical integrity of the BBB and co-perfused with the tritiated substrate. The brain uptake of tritiated tracers was also measured in the presence of unlabeled substrates [probucol 10 µM, desmosterol 20 µM orT4 10 µM], dissolved in their respective vehicles [DMSO ( < 0.5% in final perfusion fluid) or H2O/NaOH]. The experiment was terminated by decapitating the mouse. The right cerebral hemisphere and aliquots of the perfusion fluid were sampled in tared vials, weighted, digested in 2 mL of Solvable® solubilizer (PerkinElmer, Courtaboeuf, France) at 50 °C and mixed with 9 mL of Ultima Gold XR® scintillation cocktail (PerkinElmer). Labeled compounds were counted on a Tri-Carb® (PerkinElmer) counter with the appropriate dual (^14C/^3H) quenching curves and standards to measure disintegration per minute (dpm) in samples.
(§3) The brain uptake clearance (Clup, µL/g) is the ratio between the apparent tissue distribution volume (Vbrain, µL/g) of [^3H]Aβ1–40 or [^3H]desmosterol and the perfusion time (s). The Vbrain was calculated from the amount of radioactivity in the right brain hemisphere using the following equation: Vbrain=Xbrain/Cperf where Xbrain (dpm/g) is the calculated amount of tritiated tracer in the right cerebral parenchyma and Cperf (dpm/µL) is the concentration of tritiated tracer in the perfusion fluid. Xbrain is obtained by this equation: Xbrain=Xtot−(Vvasc×Cperf) where Xtot (dpm/g) is the total amount of tritiated tracer measured in the brain tissue sample (vascular and extravascular).

[2] = target: T1, Abcg4 (Mus musculus, UniProt Q91WA9); assay: as above; details: WT mice, 60 s perfusion
T1 sequence (Q91WA9 whole entry, the tested form may be a part): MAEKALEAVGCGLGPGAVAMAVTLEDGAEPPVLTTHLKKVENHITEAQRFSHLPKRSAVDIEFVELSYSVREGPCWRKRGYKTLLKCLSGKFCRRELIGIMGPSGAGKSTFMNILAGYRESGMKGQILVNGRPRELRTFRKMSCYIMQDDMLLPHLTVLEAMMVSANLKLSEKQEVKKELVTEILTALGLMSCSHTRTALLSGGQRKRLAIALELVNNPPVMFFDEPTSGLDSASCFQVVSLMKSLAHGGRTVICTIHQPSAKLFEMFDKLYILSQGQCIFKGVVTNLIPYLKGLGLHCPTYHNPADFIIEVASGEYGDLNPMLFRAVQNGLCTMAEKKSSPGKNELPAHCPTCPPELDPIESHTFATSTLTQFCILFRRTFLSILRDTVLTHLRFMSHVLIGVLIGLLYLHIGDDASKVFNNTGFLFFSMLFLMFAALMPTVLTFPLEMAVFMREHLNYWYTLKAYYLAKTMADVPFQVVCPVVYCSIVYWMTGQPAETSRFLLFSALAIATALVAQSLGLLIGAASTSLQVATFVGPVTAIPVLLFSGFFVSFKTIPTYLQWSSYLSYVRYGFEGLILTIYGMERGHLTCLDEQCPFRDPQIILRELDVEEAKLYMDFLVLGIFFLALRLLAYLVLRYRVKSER
Description: as §1, §2, §3

[3] = target: T1, Abcg4; assay: Abcg4-mediated Aβ transport/efflux in HEK-Abcg4 transfected cells; type: cell-based; details: data not shown
Excerpt: Abcg4 monomers come together to form a homodimer that includes nearly identical binding clefts which are opposite one another on the dimer surface. The homology model is an approximation of the dimer structure frozen in time which fails to capture the dynamic nature of protein motions. In vivo it is likely that nucleotide binding changes the overall configuration of the dimer to allow for sterol binding on one side of the complex followed by translocation of sterol to the dimer core before being exported from the membrane. One consequence of this movement could be that only one sterol-binding site exists at a given time. Thus, sterol binding would alternate from one binding site to the other as sterols are translocated. This mechanism could explain why the homology model has a single sterol-binding site despite the presence of two nearly identical binding clefts. […] Abcg4 seems to have two Aβ binding sites which agrees with our previous data that percent efflux of Aβ was greater than cholesterol[18] and with our current data that desmosterol competes with Aβ efflux. Furthermore, we previously measured, in HEK-Abcg4 transfected cells, the velocity of Aβ transport by Abcg4 as a function of [^3H]Aβ1-40 concentrations. […]

[4] = target: T1, Abcg4; design: Wild-type C57BL/6 and Abcg4-KO mice had free access to standard laboratory food and water; from tissue; host or cells: brain capillary endothelial cells of living C57BL/6 mice (in situ brain perfusion); details: HEK-Abcg4 transfected cells; cited from earlier work
Excerpt: We had shown previously that a probucol- and T4-sensitive transporter, different from Abca1, Abcb1 and Abcg2, restricted the brain entry of [^3H]Aβ1-40 through the mouse BBB[18],[43].

[5] = system: Abcb1 and Abcg2; details: brain efflux index (BEI) method; cited from earlier work
[6] = mouse, in vivo
Description: Mice were anesthetized by intra-peritoneal injection of a mixture of ketamine and xylazine at 140:8 mg/kg. The right common carotid artery was ligated on the heart side and the right external carotid artery was ligated at the level of the bifurcation. A catheter was inserted into the right common carotid artery. The perfusion liquid was contained in a syringe placed in an infusion pump and connected to the catheter. Before the perfusion, the thorax of the animal was opened, the heart was removed and perfusion started immediately at flow of 2.5 mL/min. […] The brain uptake of tritiated tracers was also measured in the presence of unlabeled substrates [probucol 10 µM, desmosterol 20 µM orT4 10 µM], dissolved in their respective vehicles [DMSO ( < 0.5% in final perfusion fluid) or H2O/NaOH]. […] Labeled compounds were counted on a Tri-Carb® (PerkinElmer) counter with the appropriate dual (^14C/^3H) quenching curves and standards to measure disintegration per minute (dpm) in samples.
The brain uptake clearance (Clup, µL/g) is the ratio between the apparent tissue distribution volume (Vbrain, µL/g) of [^3H]Aβ1–40 or [^3H]desmosterol and the perfusion time (s). […] Xbrain is obtained by this equation: Xbrain=Xtot−(Vvasc×Cperf) where Xtot (dpm/g) is the total amount of tritiated tracer measured in the brain tissue sample (vascular and extravascular).

[7] = system: Abcg4; details: mouse, in vivo
Description: as §1, §2, §3

[8] = system: Abcb1; design: method as in PMID 11181832; details: read-out: Km of Aβ reported for Abcb1; cited from earlier work
[9] = Abcg4-KO mice, T4 10 µM, 60 s perfusion, 5–8 mice
[10] = T4 10 µM in perfusion buffer, means of 5–8 mice
[11] = Abcg4-KO mice, probucol 10 µM, 60 s perfusion, 8–9 mice

Compound: CC(C)=CCC[C@@H](C)[C@H]1CC[C@H]2[C@@H]3CC=C4C[C@@H](O)CC[C@]4(C)[C@H]3CC[C@]12C [desmosterol]
Effect of desmosterol on [3H]Aβ1-40 Clup ([1]; Abcg4-KO mice, desmosterol 20 µM, 60 s perfusion, 5–7 mice): no significant effect
Time course of brain volume of distribution (Vbrain) as a function of perfusion time ([1]; WT C57BL/6 mice, right hemisphere, in situ brain perfusion, 3 animals per data point, r2 = 0.944): linear increase
Brain uptake clearance (Clup) in Abcg4-KO mice compared with WT mice ([1]; in situ brain perfusion, 60 s, tracer 0.2 µCi/mL, absence of probucol, 8–9 mice, two-way ANOVA, Bonferroni): not significantly different
Increase of [3H]Aβ1-40 Clup in the presence vs absence of desmosterol (ER desmosterol/ctrl) ([2]; desmosterol 20 µM in perfusion buffer, means of 5–7 mice): 1.8 fold

Compound: CNC(=O)c1cc(Oc2ccc(NC(=O)Nc3ccc(Cl)c(C(F)(F)F)c3)cc2)ccn1 [sorafenib]
Brain clearance in Mdr1a/b−/− mice compared with WT mice [5]: the same
Decrease of brain clearance in Abcb1/Abcg2-deficient mice [5]: 2.5 fold
Decrease of brain clearance in Abcg2-deficient mice [5]: 2 fold

Compound: Aβ1–40: amyloid-β peptide, 40 amino-acid form, used tritiated as transport tracer
Brain uptake clearance (Clup) in Abcg4-KO mice compared with WT mice [7]: not significantly different
Km [8]: 12.5 µM

Continued, in another order:

Increase of [3H]Aβ1–40 Clup in the presence vs absence of T4 (ER T4/ctrl) [2, 10]: 2 fold
Increase of [3H]desmosterol Clup in the presence vs absence of T4 (ER T4/ctrl) [2, 10]: 1.8 fold
Inhibition of Abcg4-mediated Aβ efflux [3]: 5.8 fold
Compound: N[C@@H](Cc1cc(I)c(Oc2cc(I)c(O)c(I)c2)c(I)c1)C(=O)O [T4, L-thyroxine]
Effect of T4 on [3H]Aβ1–40 Clup [1, 9]: this effect was lost
Effect of T4 on [3H]desmosterol Clup [1, 9]: this effect was lost

Increase of [3H]desmosterol Clup in the presence vs absence of probucol (ER probucol/ctrl) ([2]; probucol 10 µM in perfusion fluid, [3H]desmosterol 0.2 µCi/mL, Krebs bicarbonate pH 7.40, 37 °C, means of 8–9 mice): 1.8 fold
Increase of [3H]Aβ1–40 Clup in the presence vs absence of probucol (ER probucol/ctrl) ([2]; probucol 10 µM, [3H]Aβ1–40 0.2 µCi/mL, pH 7.40, 37 °C, means of 8–9 mice): 2.1 fold
Compound: CC(C)(Sc1cc(C(C)(C)C)c(O)c(C(C)(C)C)c1)Sc1cc(C(C)(C)C)c(O)c(C(C)(C)C)c1 [probucol]
Inhibition of Abcg4-mediated Aβ efflux [4]: 2 fold
Effect of probucol on [3H]Aβ1–40 Clup [1, 11]: this effect was lost
Effect of probucol on [3H]desmosterol Clup [1, 11]: this effect was lost

Brain vascular volume (Vvasc), distribution volume of [14C]sucrose [6]: under 20 µL/g
Compound: OC[C@H]1O[C@@](CO)(O[C@H]2O[C@H](CO)[C@@H](O)[C@H](O)[C@H]2O)[C@@H](O)[C@@H]1O [sucrose]
